Results: patent US10774051B2, “6-membered heterocyclic derivatives and pharmaceutical composition comprising the same” (Shionogi & Co., Ltd., priority 2015, dated 2020)

Molecular target: human P2X7 receptor (Homo sapiens, UniProt Q99572, R270H/Y155H)
Experiment: Evaluation of human P2X7 receptor inhibitory activity (Yo-Pro uptake, BzATP stimulation, FLIPR TETRA)
Assay type: cell-based
Conditions: 1321N1 cells stably expressing human P2X7 receptor; BzATP stimulation, Yo-Pro uptake; read-out: IC50 (antagonistic activity for the human P2X7 receptor)
Summary of the method: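 Yo-Pro dye uptake triggered by BzATP was monitored by FLIPR in human P2X7-transfected 1321N1 cells (SNP variant) in HEPES-buffered HBSS, pH 7.4-7.5. Compound was dispensed 8 min post-stimulation, then signal read for 20 min; IC50 derived logistically from inhibition of the fluorescence range.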

Structure (SMILES) | IC50
COC(=O)Nc1cn(Cc2ccccc2)c(Nc2cccc(Cl)c2C)nc1=O [Compound I-0020] | 17 nM
COc1cn(Cc2ccc(Cl)cc2)c(Nc2cc(C)c(C)cc2C)nc1=O [Compound I-0193] | 18 nM
COc1cn(Cc2ccc(F)cc2)c(Nc2cc3c(cc2C)OCCO3)nc1=O [Compound I-0289] | 27 nM
COc1ccc(C)c(Oc2cc(=O)c(OC)cn2Cc2ccc(F)c(Cl)c2)c1 [Compound I-0961] | 410 nM
COc1cnc(Nc2cc3sc(C)nc3cc2C)n(Cc2ccc(F)c(Cl)c2)c1=O [Compound I-0987] | 110 nM
Cc1ccc(-c2nnco2)cc1Nc1nc(=O)c(F)cn1Cc1cc(F)c(F)c(F)c1 [Compound I-1216] | 6 nM
COc1cn(Cc2ccccc2)c(NC2CCc3ccccc3C2)nc1=O (stereo not shown) [Compound I-0187] | 230 nM
COc1cn(Cc2ccccc2)c(Nc2cccc3c2CCC3)nc1=O [Compound I-0062] | 590 nM
Cc1nc2cc(C)c(Nc3nc(=O)c(F)cn3Cc3ccccc3)cc2s1 [Compound I-0788] | 12 nM
CCc1cc(F)c(OC)cc1Nc1nc(=O)c(OC)cn1Cc1cc(F)cc(F)c1 [Compound I-0817] | 4 nM

Same assay, conditions: 1321N1 cells stably expressing human P2X7 receptor; BzATP stimulation, Yo-Pro uptake; read-out: IC50 (antagonistic activity for the human P2X7 receptor), class symbol

Structure (SMILES) | IC50
Cc1c(Cl)cccc1Nc1nc(=O)c(CCO)cn1Cc1ccccc1 [Compound I-0024] | 10 to 100 nM
COc1cc(C)c(Nc2nc(=O)c(F)cn2Cc2cccc(Cl)c2)cc1OC [Compound I-0308] | < 10 nM
COc1cn(Cc2ccc(F)c(Cl)c2)c(Nc2cccc(SC)c2C)nc1=O [Compound I-0430] | < 10 nM
COc1cn(Cc2ccccc2)c(Nc2cc(OCC(F)(F)F)ccc2C)nc1=O [Compound I-0493] | 10 to 100 nM
CCOc1cc(C)c(Nc2nc(=O)c(OC)cn2Cc2ccc(F)c(F)c2)cc1C [Compound I-0260] | < 10 nM
COc1cn(Cc2ccccc2)c(N[C@@H]2CCCc3ccccc32)nc1=O [Compound I-0173] | 100 to 500 nM
CCc1cc(OC)ccc1Nc1nc(=O)c(OC)cn1Cc1ccccc1 [Compound I-0235] | 10 to 100 nM
COc1cn(Cc2ccccc2)c(N[C@@H]2CCc3ccccc32)nc1=O [Compound I-0201] | 500 to 1000 nM
COc1cn(Cc2cccc(F)c2)c(Nc2cc(C)c(C)cc2C)nc1=O [Compound I-0177] | < 10 nM
Cc1cc2c(cc1Nc1nc(=O)c(F)cn1Cc1cccc(Cl)c1)OCCO2 [Compound I-0368] | 10 to 100 nM
COc1cn(Cc2cc(Cl)cc(Cl)c2)c(Nc2cccc(Cl)c2C)nc1=O [Compound I-0317] | 100 to 500 nM
COc1cc(C)c(Nc2nc(=O)c(F)cn2Cc2ccccc2)cc1C [Compound I-0318] | < 10 nM
COc1cn(Cc2cc(C)cc(F)c2)c(Nc2cccc(Cl)c2C)nc1=O [Compound I-0478] | < 10 nM
COc1cn(Cc2ccc(F)cc2)c(Nc2cc(C)ccc2C)nc1=O [Compound I-0332] | 10 to 100 nM
COc1cn(Cc2cccc(Cl)c2)c(Nc2cc(OCC(F)(F)F)ccc2C)nc1=O [Compound I-0494] | 10 to 100 nM
Cc1cccc(Nc2nc(=O)c(Cl)cn2Cc2ccccc2)c1C [Compound I-0158] | 10 to 100 nM
COc1cccc(Nc2nc(=O)c(OC)cn2Cc2cc(F)c(F)c(F)c2)c1C [Compound I-0572] | < 10 nM
COc1cn(Cc2cccc(F)c2)c(Nc2cc(C)c(OC(F)F)cc2C)nc1=O [Compound I-0300] | < 10 nM
COc1cc(C)c(Nc2nc(=O)c(OC)cn2Cc2ccc(F)cc2)cc1OC [Compound I-0275] | 10 to 100 nM
CCc1cc(OC)c(OC)cc1Nc1nc(=O)c(OC)cn1Cc1ccc(F)c(Cl)c1 [Compound I-0273] | < 10 nM
CCc1cc(OC)c(OC)cc1Nc1nc(=O)c(Cl)cn1Cc1ccccc1 [Compound I-0351] | < 10 nM
CCc1cc(OC)c(OC)cc1Nc1nc(=O)c(OC)cn1Cc1cccc(F)c1 [Compound I-0269] | < 10 nM
COc1cn(Cc2ccccc2)c(Nc2cc(Br)ccc2Cl)nc1=O [Compound I-0144] | 100 to 500 nM
COc1cn(Cc2cc(F)cc(F)c2)c(Nc2cc(OC(C)C)ccc2C)nc1=O [Compound I-0556] | 10 to 100 nM
COc1cn(Cc2ccc(F)c(F)c2)c(Nc2cc(C)c(F)cc2C)nc1=O [Compound I-0503] | < 10 nM
COc1cn(Cc2ccc(F)c(F)c2)c(Nc2cccc(Cl)c2C)nc1=O [Compound I-0222] | < 10 nM

Same assay, conditions: antagonistic activity for the human P2X7 receptor; read-out: IC50

Structure (SMILES) | IC50
COc1c(C)ccc(Nc2nc(=O)c(OC)cn2Cc2cc(F)cc(Cl)c2)c1C [Compound I-0610] | 10 to 100 nM
COc1ccc(Nc2nc(=O)cnn2Cc2ccc(F)c(F)c2)c(C)c1 [Compound I-1272] | < 10 nM
COc1cn(Cc2ccc(F)c(Cl)c2)c(Nc2cc(-c3ccc(C)o3)ccc2C)nc1=O [Compound I-0659] | 10 to 100 nM
COc1cn(Cc2ccc(F)c(F)c2)c(Nc2cc(S(C)(=O)=O)cc(C)c2C)nc1=O [Compound I-0756] | 10 to 100 nM
COc1ccc(Nc2nc(=O)c(Cl)cn2Cc2cc(F)cc(F)c2)c(C)c1 [Compound I-0845] | 10 to 100 nM
COc1cn(Cc2cc(F)c(F)c(F)c2)c(Nc2cc(OC(C)C)ccc2C)nc1=O [Compound I-0633] | < 10 nM
Cc1nc2cc(Cl)c(Nc3nc(=O)c(F)cn3Cc3cc(F)cc(F)c3)cc2o1 [Compound I-1075] | < 10 nM
Cc1cc2cc(Nc3nc(=O)c(F)cn3Cc3cc(F)cc(F)c3)c(C)cc2[nH]1 [Compound I-1057] | 10 to 100 nM
CCOc1cn(Cc2ccc(F)c(Cl)c2)c(Nc2cc(C)cc(OC)c2C)nc1=O [Compound I-0716] | < 10 nM
COc1cc(C)c(Nc2nc(=O)c(OC)cn2Cc2cccc(F)c2)cc1Cl [Compound I-0614] | < 10 nM
Cc1nc2cc(C)c(Nc3nc(=O)cnn3Cc3cc(F)c(F)c(F)c3)cc2s1 [Compound I-1284] | < 10 nM
Cc1ccc(-c2ncco2)cc1Nc1nc(=O)c(Cl)cn1Cc1ccc(F)c(F)c1 [Compound I-0853] | < 10 nM
COc1ccc(Nc2nc(=O)cnn2Cc2cccc(F)c2)c(C)c1 [Compound I-1274] | < 10 nM
Cc1cc(OC(F)F)ccc1Nc1nc(=O)c(F)cn1Cc1cc(F)cc(F)c1 [Compound I-1064] | 10 to 100 nM
COc1cc(C)c(Nc2nc(=O)c(OC)cn2Cc2ccccc2)cc1F [Compound I-0718] | 10 to 100 nM
COc1cn(Cc2ccccc2)c(Nc2cc(C)c(OC(F)(F)F)cc2C)nc1=O [Compound I-0922] | < 10 nM
COc1cnc(Nc2cccc(Cl)c2C)n(Cc2ccc(F)c(Cl)c2)c1=O [Compound I-0971] | 100 to 500 nM
CCOc1cc(Nc2nc(=O)c(OC)cn2Cc2cc(F)cc(F)c2)c(C)cc1C [Compound I-0794] | < 10 nM
COc1cc(C)c(Nc2nc(=O)c(C#N)cn2Cc2cc(F)c(F)c(F)c2)cc1C [Compound I-1083] | < 10 nM
Cc1cc2[nH]ncc2cc1Nc1nc(=O)c(F)cn1Cc1cc(F)c(F)c(F)c1 [Compound I-1094] | < 10 nM
COc1ccc(Cl)c(Nc2nc(=O)c(OC)cn2Cc2cc(F)c(F)c(F)c2)c1 [Compound I-0846] | < 10 nM
COc1cn(Cc2ccccc2)c(Nc2cc(OC(F)(F)F)ccc2C)nc1=O [Compound I-0691] | 100 to 500 nM

Structure (SMILES) | IC50
COc1ccc(Nc2cc(=O)c(OC)cn2Cc2ccc(F)c(Cl)c2)c(C)c1 [Compound I-0944] | 100 to 500 nM
COc1cn(Cc2cc(F)cc(F)c2)c(Nc2cc(OC3CC3)ccc2C)nc1=O [Compound I-0892] | 10 to 100 nM
Cc1cc(Nc2nc(=O)c(F)cn2Cc2cc(F)cc(F)c2)c(C)cc1Cl [Compound I-1206] | < 10 nM
COc1cc(Nc2nc(=O)ccn2Cc2ccc(F)c(Cl)c2)c(C)c(OC)c1 [Compound I-1166] | < 10 nM
COc1cn(Cc2cc(F)cc(F)c2)c(Nc2cc(Oc3ccccn3)ccc2C)nc1=O [Compound I-0897] | < 10 nM
COc1cn(Cc2ccc(F)c(Cl)c2)c(Nc2cccc3c2ccc(=O)n3C)nc1=O [Compound I-0881] | 100 to 500 nM
COc1nc(C)c(Nc2nc(=O)c(F)cn2Cc2ccc(F)c(Cl)c2)cc1C [Compound I-1004] | < 10 nM
COc1cn(Cc2cccc(F)c2)c(Nc2cc(C)ccc2C)nc1=O [Compound I-0644] | 10 to 100 nM
Cc1ccc(CO)cc1Nc1nc(=O)c(F)cn1Cc1cc(F)c(F)c(F)c1 [Compound I-1015] | < 10 nM
COc1cn(Cc2cc(F)cc(F)c2)c(Nc2cc3[nH]ccc3cc2C)nc1=O [Compound I-0620] | < 10 nM
COc1cn(Cc2cc(F)cc(Cl)c2)c(Nc2cc3sc(C)nc3cc2C)nc1=O [Compound I-0669] | 10 to 100 nM
COc1cn(Cc2ccc(F)c(Cl)c2)c(Nc2cc(C)c(OC(F)(F)F)cc2C)nc1=O [Compound I-0923] | 10 to 100 nM
CCc1cc(F)c(OC)cc1Nc1nc(=O)c(F)cn1Cc1cc(F)c(F)c(F)c1 [Compound I-1211] | < 10 nM
COc1cc(C)c(Nc2nc(=O)c(C(N)=O)cn2Cc2cc(F)c(F)c(F)c2)cc1C [Compound I-1081] | 10 to 100 nM
COc1cn(Cc2ccc(F)c(F)c2)c(Nc2cc(OC(F)F)ccc2C)nc1=O [Compound I-0873] | 10 to 100 nM
Cc1ccc(OCC2CC2)cc1Nc1nc(=O)c(F)cn1Cc1cc(F)cc(F)c1 [Compound I-0997] | 10 to 100 nM
Cc1nc2cc(C)c(Nc3nc(=O)c(CCO)cn3Cc3cc(F)c(F)c(F)c3)cc2s1 [Compound I-1088] | 10 to 100 nM
Cc1ccc(CO)cc1Nc1nc(=O)c(F)cn1Cc1cc(F)cc(F)c1 [Compound I-1014] | < 10 nM
COc1cn(Cc2cc(F)cc(F)c2)c(Nc2cc(N3CCCC3=O)ccc2C)nc1=O [Compound I-0648] | 10 to 100 nM
COc1cc(C)c(Nc2nc(=O)c(OC)cn2Cc2cc(F)c(F)c(F)c2)cc1C [Compound I-0632] | < 10 nM
COc1cn(Cc2cc(F)cc(F)c2)c(Nc2cc(-c3cccn(C)c3=O)ccc2C)nc1=O [Compound I-0589] | < 10 nM
